Measured values published in ChEMBL document CHEMBL6114958, “Progress in the study of anti-Alzheimer's disease activity of pyrimidine-containing bioactive molecules” (Eur J Med Chem, 2025).

Assays:
[1] = molecular target: T1, Acetylcholinesterase (Homo sapiens, UniProt P22303); assay: Inhibition of recombinant human AChE using acetylthiocholine iodide as substrate by Ellman's method
[2] = molecular target: Cholinesterase (Equus caballus, UniProt P81908); assay: Inhibition of equine serum BChE using butyrylthiocholine iodide measured after 25 mins by Ellman's spectrophotometric method
[3] = molecular target: T2, Cholinesterase (Homo sapiens, UniProt P06276); assay: Inhibition of human BChE by Ellman's method
[4] = molecular target: T3, Amine oxidase [flavin-containing] A (Homo sapiens, UniProt P21397); assay: Inhibition of recombinant human MAO-A assessed as fluorescence measured after 30 mins by Amplex Red reagent assay
T3 sequence (P21397 whole entry): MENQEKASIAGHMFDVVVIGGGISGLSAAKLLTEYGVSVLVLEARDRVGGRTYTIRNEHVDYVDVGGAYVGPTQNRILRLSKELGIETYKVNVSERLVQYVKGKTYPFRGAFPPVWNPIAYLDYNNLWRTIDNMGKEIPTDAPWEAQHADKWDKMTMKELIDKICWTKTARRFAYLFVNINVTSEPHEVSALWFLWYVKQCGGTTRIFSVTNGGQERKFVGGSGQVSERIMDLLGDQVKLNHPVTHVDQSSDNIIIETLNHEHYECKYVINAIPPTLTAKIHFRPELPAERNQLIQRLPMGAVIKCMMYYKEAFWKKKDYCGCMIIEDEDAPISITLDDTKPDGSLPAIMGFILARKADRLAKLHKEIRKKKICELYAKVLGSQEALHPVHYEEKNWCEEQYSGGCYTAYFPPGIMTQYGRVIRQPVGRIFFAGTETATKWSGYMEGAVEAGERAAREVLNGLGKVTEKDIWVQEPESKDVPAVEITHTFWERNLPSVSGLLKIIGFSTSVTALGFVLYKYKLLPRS

[5] = molecular target: T4, Amine oxidase [flavin-containing] B (Homo sapiens, UniProt P27338); assay: Inhibition of recombinant human MAO-B assessed as fluorescence measured after 30 mins by Amplex Red reagent assay
T4 sequence (P27338 whole entry): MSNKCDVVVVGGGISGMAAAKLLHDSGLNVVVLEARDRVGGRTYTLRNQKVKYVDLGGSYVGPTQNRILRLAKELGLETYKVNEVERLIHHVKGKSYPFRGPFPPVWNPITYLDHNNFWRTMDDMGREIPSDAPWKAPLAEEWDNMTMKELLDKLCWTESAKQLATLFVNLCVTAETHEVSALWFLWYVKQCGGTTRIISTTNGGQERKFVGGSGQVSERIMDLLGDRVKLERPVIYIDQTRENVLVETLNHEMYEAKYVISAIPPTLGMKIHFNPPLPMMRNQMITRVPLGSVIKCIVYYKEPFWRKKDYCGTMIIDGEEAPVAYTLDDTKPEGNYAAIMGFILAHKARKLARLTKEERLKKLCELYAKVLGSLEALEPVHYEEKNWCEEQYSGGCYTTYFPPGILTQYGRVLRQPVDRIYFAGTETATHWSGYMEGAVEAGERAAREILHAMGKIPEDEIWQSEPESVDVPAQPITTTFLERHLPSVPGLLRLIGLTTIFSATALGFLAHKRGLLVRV

[6] = molecular target: T1, Acetylcholinesterase; assay: Inhibition of Acetylcholinesterase (unknown origin) activity measured after 15 mins by Amplex Red reagent assay
[7] = molecular target: T1, Acetylcholinesterase; assay: Inhibition of AChE (unknown origin)
[8] = molecular target: T4, Amine oxidase [flavin-containing] B; assay: Inhibition of human MAO-B
[9] = molecular target: T3, Amine oxidase [flavin-containing] A; assay: Inhibition of human MAO-A
[10] = molecular target: T5, Acetylcholinesterase (Electrophorus electricus, UniProt O42275); assay: Inhibition of electric eel AChE
[11] = molecular target: Histone deacetylase 1 (Homo sapiens, UniProt Q13547); assay: Inhibition of HDAC1 (unknown origin)
[12] = molecular target: Histone deacetylase 2 (Homo sapiens, UniProt Q92769); assay: Inhibition of HDAC2 (unknown origin)
[13] = molecular target: T6, Protein deacetylase HDAC6 (Homo sapiens, UniProt Q9UBN7); assay: Inhibition of HDAC6 (unknown origin)
T6 sequence (Q9UBN7 whole entry): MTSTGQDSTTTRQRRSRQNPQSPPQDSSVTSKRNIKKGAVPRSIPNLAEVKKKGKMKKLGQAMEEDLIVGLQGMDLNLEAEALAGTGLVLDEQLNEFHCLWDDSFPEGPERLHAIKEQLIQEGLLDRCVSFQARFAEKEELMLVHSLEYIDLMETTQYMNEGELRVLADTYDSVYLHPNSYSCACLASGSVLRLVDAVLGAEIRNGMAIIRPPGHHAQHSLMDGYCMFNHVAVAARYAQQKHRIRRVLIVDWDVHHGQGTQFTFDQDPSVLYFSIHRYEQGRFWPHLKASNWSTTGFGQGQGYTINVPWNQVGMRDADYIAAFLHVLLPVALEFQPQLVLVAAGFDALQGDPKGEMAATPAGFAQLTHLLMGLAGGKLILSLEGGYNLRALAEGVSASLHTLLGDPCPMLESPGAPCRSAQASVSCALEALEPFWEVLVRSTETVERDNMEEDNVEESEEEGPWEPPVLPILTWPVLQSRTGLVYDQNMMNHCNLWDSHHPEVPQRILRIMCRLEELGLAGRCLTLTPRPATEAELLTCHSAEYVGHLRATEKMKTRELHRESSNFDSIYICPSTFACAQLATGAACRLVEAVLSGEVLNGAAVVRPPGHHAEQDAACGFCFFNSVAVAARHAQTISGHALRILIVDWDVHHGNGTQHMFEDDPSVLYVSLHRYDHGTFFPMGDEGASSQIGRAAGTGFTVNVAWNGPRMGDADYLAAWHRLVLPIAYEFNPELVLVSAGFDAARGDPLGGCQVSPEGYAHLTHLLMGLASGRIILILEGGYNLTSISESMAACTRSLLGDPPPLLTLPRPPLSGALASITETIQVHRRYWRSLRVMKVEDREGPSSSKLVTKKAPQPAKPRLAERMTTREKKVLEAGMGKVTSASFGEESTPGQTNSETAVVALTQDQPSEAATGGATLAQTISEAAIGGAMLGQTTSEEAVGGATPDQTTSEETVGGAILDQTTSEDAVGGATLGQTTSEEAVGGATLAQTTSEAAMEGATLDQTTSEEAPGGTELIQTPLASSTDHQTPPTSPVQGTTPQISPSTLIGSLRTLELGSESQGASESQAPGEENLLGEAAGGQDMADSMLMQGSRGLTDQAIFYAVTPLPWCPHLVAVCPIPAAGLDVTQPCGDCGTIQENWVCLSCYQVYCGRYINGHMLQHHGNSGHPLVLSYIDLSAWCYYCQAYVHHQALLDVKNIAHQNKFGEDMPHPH

[14] = molecular target: High affinity cGMP-specific 3',5'-cyclic phosphodiesterase 9A (Homo sapiens, UniProt O76083); assay: Inhibition of PDE9 (unknown origin)
[15] = molecular target: Beta-secretase 1 (Homo sapiens, UniProt P56817); assay: Inhibition of BACE1 (unknown origin)
[16] = Inhibition of Cysteine asparaginase (unknown origin); design: species or system Homo sapiens
[17] = molecular target: T1, Acetylcholinesterase; assay: Inhibition of AChE (unknown origin) using acetylthiocholine iodide as substrate by Ellman's method
[18] = molecular target: T2, Cholinesterase; assay: Inhibition of BChE (unknown origin) using butyrylthiocholine iodide as substrate by Ellman's method
[19] = molecular target: T1, Acetylcholinesterase; assay: Inhibition of human AChE by Ellman's method
[20] = molecular target: Acetylcholinesterase (Electrophorus electricus) (UniProt O42275); assay: Inhibition of electric eel AChE using acetylthiocholine as substrate at 9 uM by Ellman's spectrophotometric method relative to control
[21] = Inhibition of Calcium channel (unknown origin); design: species or system Homo sapiens
[22] = molecular target: T2, Cholinesterase; assay: Inhibition of BChE (unknown origin)
[23] = molecular target: T5, Acetylcholinesterase; assay: Inhibition of electric eel AChE using ACTI as substrate measured after 30 mins by spectrometric analysis

T5 sequence (O42275 whole entry): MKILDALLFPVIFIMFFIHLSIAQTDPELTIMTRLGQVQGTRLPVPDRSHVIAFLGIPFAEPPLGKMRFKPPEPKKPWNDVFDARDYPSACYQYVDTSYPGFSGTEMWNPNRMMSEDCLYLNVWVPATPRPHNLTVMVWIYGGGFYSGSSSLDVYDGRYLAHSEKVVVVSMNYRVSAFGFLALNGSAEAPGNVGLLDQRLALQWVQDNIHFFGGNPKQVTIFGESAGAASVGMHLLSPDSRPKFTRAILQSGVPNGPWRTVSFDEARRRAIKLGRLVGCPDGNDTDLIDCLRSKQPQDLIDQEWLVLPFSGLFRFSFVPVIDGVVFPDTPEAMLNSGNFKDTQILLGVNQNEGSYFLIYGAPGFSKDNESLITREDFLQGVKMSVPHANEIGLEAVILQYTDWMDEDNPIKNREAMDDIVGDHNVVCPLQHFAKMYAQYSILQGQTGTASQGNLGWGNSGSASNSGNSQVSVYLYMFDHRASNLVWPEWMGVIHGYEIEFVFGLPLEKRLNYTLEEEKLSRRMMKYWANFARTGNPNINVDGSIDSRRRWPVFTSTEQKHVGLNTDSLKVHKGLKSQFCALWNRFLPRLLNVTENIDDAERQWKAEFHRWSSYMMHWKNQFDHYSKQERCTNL
T2 sequence (P06276 whole entry): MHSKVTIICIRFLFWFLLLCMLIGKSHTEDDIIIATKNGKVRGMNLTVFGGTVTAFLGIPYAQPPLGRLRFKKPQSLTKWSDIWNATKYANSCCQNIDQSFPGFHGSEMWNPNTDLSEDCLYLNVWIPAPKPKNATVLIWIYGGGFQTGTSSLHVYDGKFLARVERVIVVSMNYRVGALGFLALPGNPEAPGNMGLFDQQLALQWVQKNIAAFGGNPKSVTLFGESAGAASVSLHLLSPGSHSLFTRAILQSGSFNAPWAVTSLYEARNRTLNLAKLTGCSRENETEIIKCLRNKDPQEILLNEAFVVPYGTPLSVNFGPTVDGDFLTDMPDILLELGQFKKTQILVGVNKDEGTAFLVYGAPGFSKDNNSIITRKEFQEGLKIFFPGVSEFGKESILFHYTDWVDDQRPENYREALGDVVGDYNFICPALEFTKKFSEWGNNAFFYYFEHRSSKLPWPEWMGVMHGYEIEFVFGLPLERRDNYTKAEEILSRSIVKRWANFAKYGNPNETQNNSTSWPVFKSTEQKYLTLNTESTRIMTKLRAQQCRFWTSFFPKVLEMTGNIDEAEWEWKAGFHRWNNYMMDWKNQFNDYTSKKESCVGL
Chain of High affinity cGMP-specific 3',5'-cyclic phosphodiesterase 9A (O76083 whole entry): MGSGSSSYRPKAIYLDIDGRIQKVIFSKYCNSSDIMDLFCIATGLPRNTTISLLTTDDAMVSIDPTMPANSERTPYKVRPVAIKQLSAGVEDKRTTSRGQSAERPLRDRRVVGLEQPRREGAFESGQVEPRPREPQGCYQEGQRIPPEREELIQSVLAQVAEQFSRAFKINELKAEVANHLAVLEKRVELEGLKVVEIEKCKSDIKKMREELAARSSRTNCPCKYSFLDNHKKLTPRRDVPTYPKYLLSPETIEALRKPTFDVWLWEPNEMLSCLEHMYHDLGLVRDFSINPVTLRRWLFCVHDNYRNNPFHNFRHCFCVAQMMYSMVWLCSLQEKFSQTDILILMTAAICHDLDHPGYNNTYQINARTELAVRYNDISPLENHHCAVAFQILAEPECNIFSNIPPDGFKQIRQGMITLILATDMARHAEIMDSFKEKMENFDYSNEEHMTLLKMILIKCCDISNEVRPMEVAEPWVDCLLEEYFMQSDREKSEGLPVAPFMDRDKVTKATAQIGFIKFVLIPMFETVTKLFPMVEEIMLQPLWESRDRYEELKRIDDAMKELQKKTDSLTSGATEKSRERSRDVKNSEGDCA
Chain of Histone deacetylase 1 (Q13547 whole entry): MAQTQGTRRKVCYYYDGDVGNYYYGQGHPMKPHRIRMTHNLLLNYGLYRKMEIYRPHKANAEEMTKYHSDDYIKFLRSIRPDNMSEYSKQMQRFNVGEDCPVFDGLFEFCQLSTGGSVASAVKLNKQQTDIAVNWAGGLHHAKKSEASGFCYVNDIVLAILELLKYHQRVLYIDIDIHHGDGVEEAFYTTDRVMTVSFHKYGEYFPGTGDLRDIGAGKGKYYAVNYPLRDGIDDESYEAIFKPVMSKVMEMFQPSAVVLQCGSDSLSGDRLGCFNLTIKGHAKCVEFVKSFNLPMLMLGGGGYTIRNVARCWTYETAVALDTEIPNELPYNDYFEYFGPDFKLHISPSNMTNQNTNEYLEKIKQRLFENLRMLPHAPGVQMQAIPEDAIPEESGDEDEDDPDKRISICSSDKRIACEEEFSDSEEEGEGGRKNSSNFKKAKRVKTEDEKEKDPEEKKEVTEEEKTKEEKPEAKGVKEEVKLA
Chain of Histone deacetylase 2 (Q92769 whole entry): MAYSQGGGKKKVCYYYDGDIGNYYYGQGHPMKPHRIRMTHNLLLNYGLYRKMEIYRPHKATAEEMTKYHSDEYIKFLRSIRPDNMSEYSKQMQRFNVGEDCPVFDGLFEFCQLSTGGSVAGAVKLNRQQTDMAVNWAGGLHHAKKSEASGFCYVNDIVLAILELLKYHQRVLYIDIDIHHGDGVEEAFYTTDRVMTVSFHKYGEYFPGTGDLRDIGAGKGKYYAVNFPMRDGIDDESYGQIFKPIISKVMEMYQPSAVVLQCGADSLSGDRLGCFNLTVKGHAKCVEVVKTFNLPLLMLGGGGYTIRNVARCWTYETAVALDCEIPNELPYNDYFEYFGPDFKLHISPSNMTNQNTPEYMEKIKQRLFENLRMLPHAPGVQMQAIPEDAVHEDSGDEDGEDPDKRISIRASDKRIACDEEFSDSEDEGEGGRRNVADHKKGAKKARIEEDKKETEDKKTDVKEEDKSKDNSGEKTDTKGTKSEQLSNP
T1 sequence (P22303 whole entry): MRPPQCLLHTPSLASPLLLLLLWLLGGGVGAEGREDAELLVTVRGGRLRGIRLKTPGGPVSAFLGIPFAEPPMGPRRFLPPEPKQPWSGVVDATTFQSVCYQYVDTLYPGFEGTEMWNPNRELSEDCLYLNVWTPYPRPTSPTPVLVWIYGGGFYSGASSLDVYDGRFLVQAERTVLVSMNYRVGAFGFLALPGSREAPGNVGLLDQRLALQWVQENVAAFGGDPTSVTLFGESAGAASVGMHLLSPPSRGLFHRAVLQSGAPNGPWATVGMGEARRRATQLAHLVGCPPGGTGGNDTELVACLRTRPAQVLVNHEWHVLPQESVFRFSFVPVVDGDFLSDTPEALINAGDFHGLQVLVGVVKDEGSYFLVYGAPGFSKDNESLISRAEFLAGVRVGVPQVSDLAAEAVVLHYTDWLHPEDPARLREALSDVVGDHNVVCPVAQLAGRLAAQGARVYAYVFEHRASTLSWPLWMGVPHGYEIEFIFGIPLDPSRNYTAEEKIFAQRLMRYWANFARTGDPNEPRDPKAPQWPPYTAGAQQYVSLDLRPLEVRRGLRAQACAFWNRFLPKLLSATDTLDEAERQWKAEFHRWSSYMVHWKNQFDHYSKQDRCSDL
Chain of Cholinesterase (Equus caballus, UniProt P81908) (P81908 whole entry): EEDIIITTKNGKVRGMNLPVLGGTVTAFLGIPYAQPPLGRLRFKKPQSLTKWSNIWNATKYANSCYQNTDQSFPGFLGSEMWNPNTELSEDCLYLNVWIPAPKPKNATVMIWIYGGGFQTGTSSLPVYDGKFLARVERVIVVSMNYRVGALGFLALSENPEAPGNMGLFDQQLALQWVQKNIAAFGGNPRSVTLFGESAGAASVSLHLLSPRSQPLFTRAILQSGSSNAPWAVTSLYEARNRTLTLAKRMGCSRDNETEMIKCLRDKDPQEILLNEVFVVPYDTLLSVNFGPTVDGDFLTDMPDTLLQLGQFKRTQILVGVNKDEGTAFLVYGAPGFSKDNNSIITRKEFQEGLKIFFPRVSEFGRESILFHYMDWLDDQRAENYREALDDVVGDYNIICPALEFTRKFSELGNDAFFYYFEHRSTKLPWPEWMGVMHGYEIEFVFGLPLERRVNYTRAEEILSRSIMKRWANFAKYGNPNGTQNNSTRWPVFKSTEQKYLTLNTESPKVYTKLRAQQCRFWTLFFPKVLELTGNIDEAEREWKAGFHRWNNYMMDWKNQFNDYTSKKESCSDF
Chain of Acetylcholinesterase (Electrophorus electricus) (O42275 24-633 limits assumed): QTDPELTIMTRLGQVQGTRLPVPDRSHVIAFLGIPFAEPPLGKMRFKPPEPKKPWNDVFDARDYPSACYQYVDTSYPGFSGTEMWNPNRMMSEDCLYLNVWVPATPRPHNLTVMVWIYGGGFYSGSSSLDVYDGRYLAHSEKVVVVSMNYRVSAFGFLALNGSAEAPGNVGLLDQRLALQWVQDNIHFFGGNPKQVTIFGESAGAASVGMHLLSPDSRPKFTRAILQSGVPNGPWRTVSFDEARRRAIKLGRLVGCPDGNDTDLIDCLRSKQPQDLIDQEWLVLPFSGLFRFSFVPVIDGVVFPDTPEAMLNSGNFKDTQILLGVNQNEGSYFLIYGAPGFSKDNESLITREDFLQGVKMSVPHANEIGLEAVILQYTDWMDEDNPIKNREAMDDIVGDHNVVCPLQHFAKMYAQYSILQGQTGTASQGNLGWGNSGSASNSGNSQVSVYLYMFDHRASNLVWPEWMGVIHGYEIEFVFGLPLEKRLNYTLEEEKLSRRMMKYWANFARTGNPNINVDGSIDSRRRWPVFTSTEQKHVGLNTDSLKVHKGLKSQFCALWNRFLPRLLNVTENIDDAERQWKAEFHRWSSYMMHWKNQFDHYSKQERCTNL

Q: For `CN(CCCOc1ccc([N+](=O)[O-])cc1)C(=O)c1cnc(N2CCN(c3ccc(C(=O)N4CCOCC4)cc3[N+](=O)[O-])CC2)nc1`, which IC50 [1] is on record?
A: 900 nM

Q: Which IC50 [2] does the source give for `COC(=O)/C1=C/N(C(C)C)CCc2nc(-c3ccccc3)[nH]c(=O)c2C1` here?
A: 1300 nM

Q: For `N#CC1C(N)N2CCCNC2C(C#N)C12C(=O)Nc1ccc(Br)cc12` (stereo not drawn), which IC50 [3] is on record?
A: 17500 nM

Q: What does the source list for `C#CCNc1ccc(-c2cc(-c3ccc(OCCN4CCOCC4)cc3)nc(N)n2)cc1`?
A: IC50 [4]: 9940 nM; IC50 [5]: 40 nM; IC50 [6]: 7210 nM

Q: With `CCN(CCCCCn1c(C)cc(=O)n(CCCCCN(CC)Cc2ccccc2C#N)c1=O)Cc1ccccc1C#N` as the compound, how does the IC50 [1] read?
A: 7300 nM

Q: Which IC50 [2] does the source give for `CCN(CC)CCCNC1NC(c2ccccc2)=NC2=C1C/C(C(=O)OC)=C\N(C(C)C)CC2` (stereo not drawn) here?
A: 105 nM

Q: Which IC50 [7] does the source give for `CCOC(=O)C1=C(C)N=C2SC(c3ccc([N+](=O)[O-])cc3)=NN2C1c1ccc(C=O)cn1` (stereo not drawn) here?
A: 82 nM

Q: With `C#CCCCOc1ccc(-c2cc(-c3ccc(OCCN4CCOCC4)cc3)nc(-c3ccccc3)n2)cc1` as the compound, how does the IC50 [8] read?
A: 8600 nM

Q: And the IC50 [9]?
A: 740 nM

Q: And the IC50 [10]?
A: 17500 nM

Q: With `CC(c1nc2c(cnn2C2CCCC2)c(=O)[nH]1)C1CC(Cc2ccc(C(=O)NO)cc2)C1` (stereo not drawn) as the compound, how does the IC50 [11] read?
A: 593 nM

Q: What about the IC50 [12] of the same compound?
A: 3530 nM

Q: And the IC50 [13]?
A: 40 nM

Q: And the IC50 [14]?
A: 107 nM

Q: What does the source list for `CC(c1nc2c(cnn2C2CCCC2)c(=O)[nH]1)N1CC(Cc2ccc(C(=O)Nc3ccccc3N)cc2)C1` (stereo not drawn)?
A: IC50 [11]: 99 nM; IC50 [12]: 545 nM; IC50 [13]: > 10000 nM; IC50 [14]: 57 nM

Q: Which IC50 [15] does the source give for `COc1cccc(-c2csc(NC(=O)CSc3nc(N)cc(N)n3)n2)c1` here?
A: 1400 nM

Q: For `CC1(C)CC(=O)c2c(N)nc(Nc3ccccc3)nc2C1`, which IC50 [16] is on record?
A: 22 nM

Q: Which IC50 [17] does the source give for `COc1cccc(-c2nc(SCCCSc3nc(N)c(C#N)c(-c4cccc(OC)c4)n3)nc(N)c2C#N)c1` here?
A: 5720 nM

Q: With `CCN(CCCCCn1c(C)cc(=O)n(CCCCCN(CC)Cc2cccc(C(=O)OC)c2)c1=O)Cc1cccc(C(=O)OC)c1` as the compound, how does the IC50 [1] read?
A: 290 nM

Q: For `C#CCOc1ccc(-c2cc(-c3ccc(OCCN4CCOCC4)cc3)nc(N)n2)cc1`, which IC50 [4] is on record?
A: 18 nM

Q: And the IC50 [5]?
A: > 50000 nM

Q: And the IC50 [6]?
A: 30500 nM

Q: For `N#Cc1c(N)nc(SCCCSc2nc(N)c(C#N)c(-c3ccc(Br)cc3)n2)nc1-c1ccc(Br)cc1`, which IC50 [18] is on record?
A: 12200 nM

Q: With `N#CC1C(N)N2CCCNC2C(C#N)C12C(=O)Nc1ccccc12` (stereo not drawn) as the compound, how does the IC50 [19] read?
A: 4040 nM

Q: With `c1ccc(CNCCCCCCNc2ncccn2)cc1` as the compound, how does the inhibition [20] read?
A: 92.9%

Q: Which IC50 [19] does the source give for `Cc1ccc(O)c(CNc2c(N)n(C)c(=O)n(C)c2=O)c1` here?
A: 4.65 nM

Q: Which IC50 [8] does the source give for `C#CCCCOc1ccc(-c2cc(-c3ccc(OCCN4CCCC4)cc3)nc(-c3ccccc3)n2)cc1` here?
A: > 50000 nM

Q: What about the IC50 [9] of the same compound?
A: 750 nM

Q: What about the IC50 [10] of the same compound?
A: 2190 nM

Q: For `O=C(NCCCCCCNc1ncccn1)c1ccccc1`, which inhibition [20] is on record?
A: 2.5%

Q: With `CCOC(=O)C1=C(C)N(CCC2CCN(Cc3ccccc3)CC2)C(=O)NC1c1coc2c(Cl)cc(Cl)cc2c1=O` (stereo not drawn) as the compound, how does the IC50 [21] read?
A: 1400 nM

Q: For `Cc1cccc(-c2nccc(N3CCOCC3)n2)c1`, which IC50 [7] is on record?
A: 430 nM

Q: And the IC50 [22]?
A: 2500 nM

Q: With `COc1cccc(C2C3=C(CCCC3=O)Oc3nc(C)[nH]c(=O)c32)c1` (stereo not drawn) as the compound, how does the IC50 [23] read?
A: 6500 nM

Q: With `C[C@@H]1CN(Cc2ccc(CC(=O)CNO)cc2)C[C@H]1c1nc2c(cnn2C2CCOCC2)c(=O)[nH]1` as the compound, how does the IC50 [11] read?
A: 138 nM

Q: And the IC50 [12]?
A: 1250 nM

Q: What about the IC50 [13] of the same compound?
A: 508 nM

Q: What about the IC50 [14] of the same compound?
A: 8 nM
